pIC50: −log10 of the molar value.
Each molecule was assayed against T1, hTSHR (Homo sapiens, UniProt P16473) (assay: hTSHR TR-FRET cAMP Assay (inhibition of M22-stimulated cAMP production)). Conditions: Expi293F Inducible cells stably expressing hTSHR; cAMP HTRF; stimulated with EC80 of anti-TSHR antibody M22; 15 min compound preincubation, 30 min at 37° C.; read-out: Activity (IC50 bins).
T1 construct: expressed in transfected cells
T1 sequence (P16473 21-764): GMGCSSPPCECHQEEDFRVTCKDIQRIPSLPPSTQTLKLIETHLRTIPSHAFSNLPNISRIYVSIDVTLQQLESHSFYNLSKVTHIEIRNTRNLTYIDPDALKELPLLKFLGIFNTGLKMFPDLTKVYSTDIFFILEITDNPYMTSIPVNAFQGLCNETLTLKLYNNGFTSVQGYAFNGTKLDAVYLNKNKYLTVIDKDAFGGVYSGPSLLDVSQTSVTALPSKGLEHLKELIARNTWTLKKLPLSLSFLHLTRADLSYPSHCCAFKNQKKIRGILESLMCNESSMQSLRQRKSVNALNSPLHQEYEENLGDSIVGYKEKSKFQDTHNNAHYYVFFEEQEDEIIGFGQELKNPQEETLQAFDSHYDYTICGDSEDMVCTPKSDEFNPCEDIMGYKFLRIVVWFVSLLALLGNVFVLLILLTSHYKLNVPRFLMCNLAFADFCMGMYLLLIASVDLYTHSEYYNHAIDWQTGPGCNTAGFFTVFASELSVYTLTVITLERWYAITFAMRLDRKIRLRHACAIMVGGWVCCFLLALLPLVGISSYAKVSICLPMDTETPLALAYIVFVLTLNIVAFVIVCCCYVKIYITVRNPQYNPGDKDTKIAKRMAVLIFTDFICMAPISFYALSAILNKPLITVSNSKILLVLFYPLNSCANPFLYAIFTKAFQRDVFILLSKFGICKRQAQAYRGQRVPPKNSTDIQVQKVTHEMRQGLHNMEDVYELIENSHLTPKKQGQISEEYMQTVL
Format: cell-based
Method: Assays were performed using Expi293F Inducible cells (Invitrogen) stably expressing hTSHR via a pcZeo TetO DNA plasmid. Cell lines were maintained in suspension in Expi293 Expression Medium (ThermoFisher Scientific) supplemented with 10 µg/mL Blasticidin and 10 μg/mL Zeocin and incubated at 37° C., 8% CO2, with shaking. hTSHR cells were incubated overnight at 32° C., 5% C02, with shaking, but […] Doxycycline. Assay-ready aliquots were prepared by harvesting each cell type separately 24-hours post-induction. Cells were pelleted at 4° C., resuspended in Expi293 Expression media+10% DMSO, aliquoted, and kept frozen at −80° C. until ready for use.
For the assay, concentration-response curves of test and reference compounds were added to 384-well plates using an Echo 650 liquid handler (Beckman Coulter) and backfilled with DMSO to a final concentration of 0.5%. cAMP was measured using the cisbio cAMP Gs dynamic HTRF kit (PerkinElmer) according to manufacturer instructions. Aliquots of frozen hTSHR cells were quickly thawed and washed with phosphate-buffered saline (Sigma-Aldrich) to remove media and DMSO. The cells were resuspended in kit-supplied Stimulation Buffer at 0.8×10^6 cells/mL. 7.5 μL of the hTSHR cell dilution were added to each well of the assay plate and incubated with the compounds for 15 minutes in a 37 C, 0% CO2 incubator. 2.5 μL of Vehicle control or an EC80 concentration of recombinant human anti-TSHR antibody (M22, Creative Biolabs) was added to stimulate cAMP production. Cells were incubated with for 30 minutes at 37° C., 0% CO2. Following this incubation, the cells were lysed and accumulated cAMP was detected through the addition of kit-supplied lysis buffer containing d2-reagent and Eu-cryptate antibody. The HTRF signal was quantified using a BMG Clariostar plate reader optimized for HTRF assays. The HTRF ratio was determined by dividing the signal output at […] by that at 620 nm. Data were normalized to the signal produced by the EC80 concentration of either M22 or FSH (0% inhibition) and vehicle (no agonist, 100% inhibition).
Molecule `C[C@H]1Oc2cc(NC(=O)NC3CCCC3)ccc2N(Cc2ccccc2)C1=O` [Example 237, (R)-1-(4-benzyl-2-methyl-3-oxo-3,4-dihydro-2H-benzo[b][1,4]oxazin-7-yl)-3-cyclopentylurea] has a pIC50 of over 7.00.
`C[C@@H]1Oc2cc(NC(=O)NC(C)(C)C)ccc2N([C@@H](C)c2ccccc2)C1=O` [Example 268, 1-(tert-butyl)-3-((S)-2-methyl-3-oxo-4-((S)-1-phenylethyl)-3,4-dihydro-2H-benzo[b][1,4]oxazin-7-yl)urea] was tested, and the pIC50 was 6.00 to 7.00.
Molecule `CC(c1cc(Cl)ccc1C#N)N1C(=O)COc2cc(NC(=O)NC(C)(C)C)ccc21` (centres unmarked) [Example 293, 1-(tert-butyl)-3-(4-(1-(5-chloro-2-cyanophenyl)ethyl)-3-oxo-3,4-dihydro-2H-benzo[b][1,4]oxazin-7-yl)urea] has a pIC50 of under 6.00.
Molecule `C[C@@H](c1cc(OC(F)(F)F)ccc1F)n1c(=O)cnc2cc(NC(=O)NC(C)(C)C)ccc21` [Example 104, (S)-1-(tert-butyl)-3-(1-(1-(2-fluoro-5-(trifluoromethoxy)phe-nyl)ethyl)-2-oxo-1,2-dihydroquinoxalin-6-yl)urea] has a pIC50 of 6.00 to 7.00.
For `COC[C@@H]1Oc2cc(NC(=O)NC(C)(C)C)ccc2N(Cc2ccccc2)C1=O` [Example 288, (S)-1-(4-benzyl-2-(methoxymethyl)-3-oxo-3,4-dihydro-2H-benzo[b][1,4]oxazin-7-yl)-3-(tert-butyl)urea], the pIC50 was under 6.00.
`COc1cccc([C@H](C)N2C(=O)[C@@H](C)Oc3cc(NC(=O)NC(C)(C)C)ccc32)c1` [Example 187, 1-(tert-butyl)-3-((R)-4-((S)-1-(3-methoxyphenyl)ethyl)-2-methyl-3-oxo-3,4-dihydro-2H-benzo[b][1,4]oxazin-7-yl)urea] was tested, and the pIC50 was 6.00 to 7.00.
Work on `C[C@@H](c1ccc(F)c(OC(F)(F)F)c1)n1c(=O)cnc2cc(NC(=O)NC(C)(C)C)ccc21` [Example 105, (S)-1-(tert-buty1)-3-(1-(1-(4-fluoro-3-(trifluoromethoxy)phe-nyl)ethyl)-2-oxo-1,2-dihydroquinoxalin-6-yl)urea] yielded a pIC50 of over 7.00.
`CC(c1ccc2cnn(CCC(F)(F)F)c2c1)n1c(=O)cnc2cc(NC(=O)NC(C)(C)C)ccc21` (centres unmarked) [Example 249, 1-(tert-butyl)-3-(2-oxo-1-(1-(1-(3,3,3-trifluoropropyl)-1H-indazol-6-yl)ethyl)-1,2-dihydro-quinoxalin-6-yl)urea] was tested, and the pIC50 was under 6.00.
Molecule `C[C@H]1Oc2cc(NC(=O)NC(C)(C)C)c(C(F)(F)F)cc2N([C@@H](C)c2ccccc2)C1=O` [Example 349, 1-(tert-butyl)-3-((R)-2-methyl-3-oxo-4-((S)-1-phenylethyl)-6-(trifluoromethyl)-3,4-dihydro-2H-benzo[b][1,4]oxazin-7-yl)urea] has a pIC50 of over 7.00.
`C[C@H]1Oc2cc(NC(=O)NC(C)(C)C)c(C#N)cc2N([C@@H](C)c2ccccc2)C1=O` [Example 366, 1-(tert-butyl)-3-((R)-6-cyano-2-methyl-3-oxo-4-((S)-1-phenylethyl)-3,4-dihydro-2H-benzo[b][1,4]oxazin-7-yl)urea] gave a pIC50 of over 7.00.
`C[C@@H](c1ccccc1)N1C(=O)COc2cc(NC(=O)NC(C)(C)C)ccc21` [Example 35, (S)-1-(tert-butyl)-3-(3-oxo-4-(1-phenylethyl)-3,4-dihydro-2H-benzo[b][1,4]oxazin-7-yl)urea] was tested, and the pIC50 was over 7.00.
`CC(C)(C)NC(=O)Nc1ccc2c(c1)OCC(=O)N2Cc1cccc(CO)c1` [Example 72, 1-(tert-butyl)-3-(4-(3-(hydroxy-methyl)ben-zyl)-3-oxo-3,4-dihydro-2H-benzo[b][1,4]oxa-zin-7-yl)urea] was tested, and the pIC50 was under 6.00.
For `C[C@H]1Oc2c(cc(F)c(NC(=O)NC(C)(C)C)c2F)N(Cc2cccc(C(F)F)c2)C1=O` [Example 336, (R)-1-(tert-butyl)-3-(4-(3-(difluoromethyl)benzyl)-6,8-difluoro-2-methyl-3-oxo-3,4-dihydro-2H-benzo[b][1,4]oxazin-7-yl)urea], the pIC50 was over 7.00.
`C[C@H]1Oc2cc(NC(=O)N[C@H]3C[C@@H](C(F)(F)F)C3)ccc2N([C@@H](C)c2cccc(OC(F)(F)F)c2)C1=O` [Example 325, 1-((R)-2-methyl-3-oxo-4-((S)-1-(3-(trifluoromethoxy)phenyl)ethyl)-3,4-dihydro-2H-benzo[b][1,4]oxazin-7-yl)-3-((1s,3S)-3-(trifluoromethyl)cyclobutyl)urea] gave a pIC50 of 6.00 to 7.00.
`C[C@H]1Oc2cc(NC(=O)NC3(C)CCCC3)ccc2N(Cc2cccc(OC(F)(F)F)n2)C1=O` [Example 321, (R)-1-(2-methyl-3-oxo-4-((6-(trifluoromethoxy)pyridin-2-yl)methyl)-3,4-dihydro-2H-benzo[b][1,4]oxazin-7-yl)-3-(1-methylcyclopentyl)urea] gave a pIC50 of over 7.00.
Work on `CC(C)(C)NC(=O)Nc1cc2c(cc1Cl)N(Cc1ccccc1)C(=O)CC2` [Example 66, 1-(1-benzyl-7-chloro-2-oxo-3,4-dihydroquinolin-6-yl)-3-tert-butylurea] yielded a pIC50 of 6.00 to 7.00.
`C[C@@H](c1cccc(OC(F)(F)F)c1)n1c(=O)cnc2cc(NC(=O)NCC(C)(C)C)ccc21` [Example 201, (S)-1-neopentyl-3-(2-oxo-1-(1-(3-(trifluoromethoxy)phenyl)ethyl)-1,2-dihydroquinoxalin-6-yl)urea] gave a pIC50 of 6.00 to 7.00.
In the case of `C[C@H]1Oc2c(cc(C#N)c(NC(=O)NC(C)(C)C)c2F)N(Cc2ccccc2)C1=O` [Example 369, (R)-1-(4-benzyl-6-cyano-8-fluoro-2-methyl-3-oxo-3,4-dihydro-2H-benzo[b][1,4]oxazin-7-yl)-3-(tert-butyl)urea], the pIC50 was over 7.00.
`CC(C)(C)NC(=O)Nc1ccc2c(c1)CCC(=O)N2Cc1ccc(C#N)cc1` [Example 17, 1-(tert-butyl)-3-(1-(4-cyanobenzyl)-2-oxo-1,2,3,4-tetrahydroquinolin-6-yl)urea] was tested, and the pIC50 was under 6.00.
`COCC1(NC(=O)Nc2ccc3c(c2)O[C@H](C)C(=O)N3[C@@H](C)c2ccccc2)CCC1` [Example 261, 1-(1-(methoxy-methyl)cyclobutyl)-3-((R)-2-methyl-3-oxo-4-((S)-1-phen-ylethyl)-3,4-dihydro-2H-benzo [b][1,4]oxazin-7-yl)urea] was tested, and the pIC50 was 6.00 to 7.00.
Molecule `O=C(Nc1ccc2c(c1)ncc(=O)n2Cc1ccccc1)NC1CCCC1` [Example 196, 1-(1-benzyl-2-oxo-1,2-dihydroquinoxalin-6-yl)-3-cyclopentylurea] has a pIC50 of under 6.00.
`CC(C)(C)NC(=O)Nc1ccc2c(c1)OCC(=O)N2Cc1cccc(OC(F)(F)F)c1` [Example 74, 1-(tert-butyl)-3-(3-oxo-4-(3-(tri-fluoromethoxy)ben-zyl)-3,4-dihydro-2H-benzo[b][1,4]oxa-zin-7-yl)urea] was tested, and the pIC50 was 6.00 to 7.00.
Work on `C[C@@H](c1ccccc1F)N1C(=O)CCc2cc(NC(=O)NC(C)(C)C)ccc21` [Example 58, 3-tert-butyl-1-{1-[(1S)-1-(2-fluorophenyl)ethyl]-2-oxo-3,4-dihydroquinolin-6-yl}urea] yielded a pIC50 of over 7.00.
In the case of `C[C@H]1Oc2cc(NC(=O)NC(C)(C)C)c(F)cc2N(Cc2cccc(C(F)F)c2)C1=O` [Example 327, (R)-1-(tert-butyl)-3-(4-(3-(difluoromethyl)benzyl)-6-fluoro-2-methyl-3-oxo-3,4-dihydro-2H-benzo[b][1,4]oxazin-7-yl)urea], the pIC50 was over 7.00.
`C[C@@H](c1cccc2c1CCC2)n1c(=O)cnc2cc(NC(=O)NC(C)(C)C)ccc21` [Example 125, (S)-1-(tert-butyl)-3-(1-(1-(2,3-dihydro-1H-inden-4-yl)ethyl)-2-oxo-1,2-dihydroquinoxalin-6-yl)urea] gave a pIC50 of 6.00 to 7.00.
In the case of `C[C@@H](c1cc(Cl)ccc1F)n1c(=O)cnc2cc(NC(=O)NC(C)(C)C)c(Cl)cc21` [Example 372, (S)-1-(tert-butyl)-3-(7-chloro-1-(1-(5-chloro-2-fluorophenyl)ethyl)-2-oxo-1,2-dihydroquinoxalin-6-yl)urea], the pIC50 was over 7.00.
For `CC(C)(C)NC(=O)Nc1ccc2c(c1)ncc(=O)n2Cc1cccc(CCC(F)(F)F)c1` [Example 92, 1-(tert-butyl)-3-(2-oxo-1-(3-(3,3,3-trifluoro-propyl)benzyl)-1,2-dihydro-quinoxalin-6-yl)urea], the pIC50 was 6.00 to 7.00.
`Cc1ccc(C#N)c(CN2C(=O)[C@H](C)Oc3cc(NC(=O)NC(C)(C)C)ccc32)c1` [Example 88, (S)-1-(tert-butyl)-3-(4-(2-cyano-5-methylbenzyl)-2-methyl-3-oxo-3,4-dihydro-2H-benzo[b][1,4]oxazin-7-yl)urea] gave a pIC50 of under 6.00.
Work on `C[C@H]1Oc2cc(NC(=O)NC(C)(C)C)ccc2N(Cc2cccc([C@H](O)C(F)(F)F)c2)C1=O` [Example 175, 1-(tert-butyl)-3-((R)-2-methyl-3-oxo-4-(3-((S)-2,2,2-trifluoro-1-hydroxyethyl)benzyl)-3,4-dihydro-2H-benzo [b][1,4]oxazin-7-yl)urea] yielded a pIC50 of 6.00 to 7.00.
